Laboratory results taken from the supplement of paper PMC10331698.
± gives the standard deviation of the averaged measurements.

What was measured:
Assay in all cases: level (log10 ratio to DMSO vehicle control); higher = higher biomarker level / cell amount than vehicle control
[1] = compound: FC(F)(F)C(F)(F)C(F)(F)C(F)(F)C(F)(F)C(F)(F)CC1CO1 [3-(Perfluorohexyl)-1,2-epoxypropane]; conditions: in DMSO
Protocol: (§1)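 BioMAP Diversity Plus panel of 12 human primary cell co-culture systems (3C, 4H, LPS, SAg, BT, BF4T, BE3C, CASM3C, HDF3CGF, KF3CT, MyoF, Mphg). Compounds were added 1 h before stimulation and left for 24 h (MyoF 48 h; BT 72 h for soluble read-outs or 6 d for IgG). Biomarkers were read by ELISA, cytotoxicity by SRB, PBMC viability and proliferation by Alamar Blue. Each well value was divided by the mean of 8 DMSO control wells on the same plate and log10 transformed; duplicate blinded samples were tested at 4 concentrations.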

[2] = compound: NS(=O)(=O)C(F)(F)C(F)(F)C(F)(F)C(F)(F)C(F)(F)C(F)(F)F [Perfluorohexanesulfonamide]; conditions: in DMSO
Protocol: as §1

[3] = compound: NC(=O)C(F)(F)C(F)(F)C(F)(F)C(F)F; conditions: in DMSO
Protocol: as §1

[4] = compound: O=S(=O)(O)CCC(F)(F)C(F)(F)C(F)(F)C(F)(F)C(F)(F)C(F)(F)F [6:2 Fluorotelomer sulfonic acid]; conditions: in DMSO
Protocol: as §1

[5] = compound: FC(F)(F)C(F)(F)C(F)(F)CC1CO1 [1H,1H-Heptafluorobutyl epoxide]; conditions: in DMSO
Protocol: as §1

[6] = compound: O=S(=O)(F)C(F)(F)C(F)(F)C(F)(F)C(F)(F)C(F)(F)C(F)(F)C(F)(F)C(F)(F)F [Perfluorooctanesulfonyl fluoride]; conditions: in DMSO
Protocol: as §1

[7] = compound: O=S(=O)(O)C(F)(F)C(F)(F)C(F)(F)C(F)(F)C(F)(F)C(F)(F)C(F)(F)C(F)(F)C(F)(F)C(F)(F)F [Sodium perfluorodecanesulfonate]; conditions: in DMSO
Protocol: as §1

[8] = compound: C=CC(=O)OCC(F)(F)C(F)(F)C(F)(F)COC(=O)C=C [1H,1H,5H,5H-Perfluoro-1,5-pentanediol diacrylate]; conditions: 6700 nM; in DMSO
Protocol: as §1

[9] = compound: FC(F)(F)C(F)(F)C(F)(F)C(F)(F)C(F)(F)C(F)(F)C(F)(F)I [1-Iodopentadecafluoroheptane]; conditions: in DMSO
Protocol: as §1

[10] = compound: FC(F)(F)C(F)(F)C(F)(F)CI [Heptafluorobutyl iodide]; conditions: in DMSO
Protocol: as §1

[11] = compound: C=C(C)C(=O)OCCC(F)(F)C(F)(F)C(F)(F)C(F)(F)C(F)(F)C(F)(F)F [6:2 Fluorotelomer methacrylate]; conditions: in DMSO
Protocol: as §1

[12] = compound: O=C(O)C=CC(F)(C(F)(F)F)C(F)(F)F [3-(Perfluoroisopropyl)-2-propenoic acid]; conditions: in DMSO
Protocol: as §1

[13] = compound: OCC(F)(F)C(F)(F)C(F)(F)CO [Hexafluoroamylene glycol]; conditions: in DMSO
Protocol: as §1

[14] = compound: NC(=O)C(F)(F)C(F)(F)C(F)(F)C(F)(F)C(N)=O [Octafluoroadipamide]; conditions: in DMSO
Protocol: as §1

[15] = compound: COC(=O)C(F)(F)C(F)(F)OC(F)(C(F)(F)F)C(F)(F)OC(F)=C(F)F [Methyl perfluoro(3-(1-ethenyloxypropan-2-yloxy)propanoate)]; conditions: in DMSO
Protocol: as §1

[16] = compound: O=C(O)C(F)(F)C(F)(F)C(F)(F)C(F)(F)C(F)(F)C(F)(F)C(F)(F)C(F)(F)C(F)(F)C(F)F [11-H-Perfluoroundecanoic acid]; conditions: in DMSO
Protocol: as §1

[17] = compound: O=S(=O)(Cl)C(F)(F)C(F)(F)C(F)(F)C(F)(F)C(F)(F)C(F)(F)C(F)(F)C(F)(F)F [Perfluoro-1-octanesulfonyl chloride]; conditions: in DMSO
Protocol: as §1

[18] = compound: FC(F)(F)C(F)(F)CNCC(F)(F)C(F)(F)F [Bis(1H,1H-perfluoropropyl)amine]; conditions: in DMSO
Protocol: as §1

[19] = compound: NC(=O)C(F)(F)C(F)(F)C(F)(F)C(F)(F)F [Nonafluoropentanamide]; conditions: in DMSO
Protocol: as §1

HDF3CGF:CXCL11/I-TAC
level (log10) ([1]; 6700 nM): 0.01 ± 0.016
level (log10) ([1]; 20000 nM): 0.015 ± 0.0028
level (log10) ([1]; 60000 nM): -0.003 ± 0.027
level (log10) ([2]; 6700 nM): 0.0075 ± 0.018
level (log10) ([2]; 20000 nM): -0.028 ± 0.011
level (log10) ([2]; 60000 nM): -0.189 ± 0.033
level (log10) ([3]; 6700 nM): -0.0035 ± 0.016
level (log10) ([3]; 20000 nM): -0.002 ± 0.013
level (log10) ([3]; 60000 nM): -0.002 ± 0.027
level (log10) ([4]; 6700 nM): -0.0445 ± 0.1
level (log10) ([4]; 20000 nM): -0.0605 ± 0.088
level (log10) ([4]; 60000 nM): -0.0885 ± 0.091
level (log10) ([5]; 6700 nM): -0.0165 ± 0.063
level (log10) ([5]; 20000 nM): -0.016 ± 0.093
level (log10) ([5]; 60000 nM): -0.0255 ± 0.11
level (log10) ([6]; 6700 nM): -0.0035 ± 0.0021
level (log10) ([6]; 20000 nM): -0.012 ± 0.0028
level (log10) ([6]; 60000 nM): -0.0155 ± 0.0021
level (log10) ([7]; 1500 nM): -0.0205 ± 0.029
level (log10) ([7]; 4400 nM): -0.0225 ± 0.0092
level (log10) ([7]; 13000 nM): 0.0785 ± 0.013
level (log10) ([7]; 40000 nM): 0.092 ± 0.0042
level (log10) [8]: -0.41 ± 0.045
level (log10) ([9]; 6700 nM): -0.019 ± 0.0057
level (log10) ([9]; 20000 nM): -0.0405 ± 0.0092
level (log10) ([10]; 6700 nM): -0.0515 ± 0.019
level (log10) ([10]; 20000 nM): -0.069 ± 0.076
level (log10) ([10]; 60000 nM): -0.091 ± 0.045
level (log10) ([11]; 6700 nM): -0.022 ± 0.021
level (log10) ([11]; 20000 nM): -0.014 ± 0.0014
level (log10) ([11]; 60000 nM): -0.018 ± 0.013
level (log10) ([12]; 6700 nM): -0.004 ± 0.0014
level (log10) ([12]; 20000 nM): 0.015 ± 0.025
level (log10) ([12]; 60000 nM): 0.002 ± 0.021
level (log10) ([13]; 6700 nM): 0.001 ± 0.04
level (log10) ([13]; 20000 nM): -0.015 ± 0.088
level (log10) ([13]; 60000 nM): -0.044 ± 0.1
level (log10) ([14]; 6700 nM): -0.0025 ± 0.011
level (log10) ([14]; 20000 nM): 0 ± 0.023
level (log10) ([14]; 60000 nM): 0.018 ± 0.0014
level (log10) ([15]; 6700 nM): -0.0285 ± 0.018
level (log10) ([15]; 20000 nM): -0.272 ± 0.0078
level (log10) ([16]; 6700 nM): -0.127 ± 0.023
level (log10) ([16]; 20000 nM): -0.2405 ± 0.0021
level (log10) ([17]; 6700 nM): -0.038 ± 0.0028
level (log10) ([17]; 20000 nM): -0.0315 ± 0.018
level (log10) ([17]; 60000 nM): -0.0145 ± 0.022
level (log10) ([18]; 6700 nM): -0.0065 ± 0.0092
level (log10) ([18]; 20000 nM): -0.0045 ± 0.013
level (log10) ([18]; 60000 nM): 0.0195 ± 0.035
level (log10) ([19]; 6700 nM): -0.0095 ± 0.021
level (log10) ([19]; 20000 nM): 0.009 ± 0.024
level (log10) ([19]; 60000 nM): -0.0155 ± 0.011

HDF3CGF:TIMP-2
level (log10) ([1]; 6700 nM): 0.0235 ± 0.012
level (log10) ([1]; 20000 nM): 0.0065 ± 0.00071
level (log10) ([1]; 60000 nM): -0.006 ± 0.02
level (log10) ([2]; 6700 nM): 0.012 ± 0.023
level (log10) ([2]; 20000 nM): 0.0005 ± 0.0021
level (log10) ([2]; 60000 nM): -0.157 ± 0.0057
level (log10) ([3]; 6700 nM): 0.015 ± 0.025
level (log10) ([3]; 20000 nM): 0.027 ± 0.033
level (log10) ([3]; 60000 nM): 0.003 ± 0.0028
level (log10) ([4]; 6700 nM): -0.021 ± 0.0099
level (log10) ([4]; 20000 nM): -0.0205 ± 0.032
level (log10) ([4]; 60000 nM): 0.0245 ± 0.029
level (log10) ([5]; 6700 nM): -0.0395 ± 0.16
level (log10) ([5]; 20000 nM): -0.061 ± 0.11
level (log10) ([5]; 60000 nM): -0.038 ± 0.1
level (log10) ([6]; 6700 nM): -0.0005 ± 0.011
level (log10) ([6]; 20000 nM): 0.0185 ± 0.012
level (log10) ([6]; 60000 nM): -0.0085 ± 0.042
level (log10) ([7]; 1500 nM): -0.026 ± 0.11
level (log10) ([7]; 4400 nM): 0.0395 ± 0.0035
level (log10) ([7]; 13000 nM): 0.005 ± 0.052
level (log10) ([7]; 40000 nM): -0.085 ± 0.089
level (log10) [8]: 0.0805 ± 0.016
level (log10) ([9]; 6700 nM): 0.015 ± 0.0057
level (log10) ([9]; 20000 nM): 0.0035 ± 0.0035
level (log10) ([10]; 6700 nM): -0.033 ± 0.0042
level (log10) ([10]; 20000 nM): -0.044 ± 0.0071
level (log10) ([10]; 60000 nM): -0.013 ± 0.051
level (log10) ([11]; 6700 nM): 0.0065 ± 0.087
level (log10) ([11]; 20000 nM): 0.018 ± 0.085
level (log10) ([11]; 60000 nM): 0.022 ± 0.082
level (log10) ([12]; 6700 nM): -0.0105 ± 0.0021
level (log10) ([12]; 20000 nM): -0.0045 ± 0.011
level (log10) ([12]; 60000 nM): -0.0115 ± 0.012
level (log10) ([13]; 6700 nM): -0.0205 ± 0.029
level (log10) ([13]; 20000 nM): -0.024 ± 0.014
level (log10) ([13]; 60000 nM): 0.0025 ± 0.032
level (log10) ([14]; 6700 nM): -0.0695 ± 0.13
level (log10) ([14]; 20000 nM): -0.035 ± 0.061
level (log10) ([14]; 60000 nM): -0.002 ± 0.013
level (log10) ([15]; 6700 nM): -0.043 ± 0.0028
level (log10) ([15]; 20000 nM): -0.051 ± 0.028
level (log10) ([16]; 6700 nM): -0.0675 ± 0.046
level (log10) ([16]; 20000 nM): -0.103 ± 0.025
level (log10) ([17]; 6700 nM): -0.002 ± 0.048
level (log10) ([17]; 20000 nM): -0.0185 ± 0.013
level (log10) ([17]; 60000 nM): -0.0205 ± 0.0021
level (log10) ([18]; 6700 nM): -0.005 ± 0.017
level (log10) ([18]; 20000 nM): -0.0085 ± 0.033
level (log10) ([18]; 60000 nM): 0.022 ± 0.0014
level (log10) ([19]; 6700 nM): -0.0315 ± 0.016
level (log10) ([19]; 20000 nM): 0.0165 ± 0.06
level (log10) ([19]; 60000 nM): 0.0025 ± 0.091
